The record followed here is ChEMBL document CHEMBL6074662, “Antibacterial, Antibiofilm, and Anti-inflammatory Effects of a Novel Thrombin-Derived Peptide in Sepsis Models: Insights into Underlying Mechanisms” (J Med Chem, 2024).

The source made the active and inactive calls. No cut-off for these calls is given here.

The subject of data set [1] is Escherichia coli. The data set can be described thus: Antibacterial activity against Escherichia coli KCTC 1682 assessed as zone of clearance incubated for 4 hrs in presence of pepsin by radical diffusion assay. It counts as functional, organism-based.
For data set [2], the system named is Escherichia coli. The data set can be described thus: Antibacterial activity against Escherichia coli KCTC 1682 assessed as zone of clearance incubated for 4 hrs in presence of trypsin by radical diffusion assay. The data set is classed as functional, organism-based.
For data set [3], the system named is Escherichia coli. The data set can be described thus: Antibacterial activity against Escherichia coli KCTC 1682 assessed as zone of clearance incubated for 4 hrs in presence of alpha-chymotrypsin by radical diffusion assay. The data set is classed as functional, organism-based.
The nature of data set [4]: Effect on secondary structure of drug in LPS assessed as formation of left-handed alpha-helical conformation at 150 uM by CD analysis. The data set is classed as physicochemical.
Data set [5] deals with Pseudomonas aeruginosa. The data set can be described thus: Synergistic bactericidal activity against multidrug-resistant Pseudomonas aeruginosa CCARM 2095 at 0.5 to 2 uM incubated for 12 hrs in presence of oxacillin by time-kill assay. The data set is classed as functional, organism-based. The settings on record: dose 0.5-2 µM.
For data set [6], the system named is RAW264.7. The data set can be described thus: Anti-inflammatory activity in mouse RAW264.7 cells assessed as decrease in LPS-induced NO production upto 10 uM pretreated for 1 hr followed by LPS treatment for 16 hrs by Griess assay. The data set is classed as functional, cell-based. The settings on record: time 17.0 hrs. In general terms: The Griess reaction detects nitrite, a stable product of nitric oxide.

The test system of data set [7] is Lipopolysaccharide (LPS). The data set can be described thus: Displacement of BODIPY-TR-cadaverine from cell-free LPS (unknown origin) at 8 uM incubated for 30 mins by fluorescence based assay relative to control.
The target in data set [8] is Toll-like receptor 4 (Homo sapiens) (UniProt O00206). The data set can be described thus: Inhibition of LPS-induced human TLR4 activation expressed in HEK-Blue hTLR4 cells assessed as decrease in SEAP activity at 12.5 uM pretreated for 1 hr followed by LPS treatment for 16 hrs by absorbance based assay relative to control. It counts as cell-based. The settings on record: time 17.0 hrs.
Chain of Toll-like receptor 4 (Homo sapiens) (O00206 whole entry): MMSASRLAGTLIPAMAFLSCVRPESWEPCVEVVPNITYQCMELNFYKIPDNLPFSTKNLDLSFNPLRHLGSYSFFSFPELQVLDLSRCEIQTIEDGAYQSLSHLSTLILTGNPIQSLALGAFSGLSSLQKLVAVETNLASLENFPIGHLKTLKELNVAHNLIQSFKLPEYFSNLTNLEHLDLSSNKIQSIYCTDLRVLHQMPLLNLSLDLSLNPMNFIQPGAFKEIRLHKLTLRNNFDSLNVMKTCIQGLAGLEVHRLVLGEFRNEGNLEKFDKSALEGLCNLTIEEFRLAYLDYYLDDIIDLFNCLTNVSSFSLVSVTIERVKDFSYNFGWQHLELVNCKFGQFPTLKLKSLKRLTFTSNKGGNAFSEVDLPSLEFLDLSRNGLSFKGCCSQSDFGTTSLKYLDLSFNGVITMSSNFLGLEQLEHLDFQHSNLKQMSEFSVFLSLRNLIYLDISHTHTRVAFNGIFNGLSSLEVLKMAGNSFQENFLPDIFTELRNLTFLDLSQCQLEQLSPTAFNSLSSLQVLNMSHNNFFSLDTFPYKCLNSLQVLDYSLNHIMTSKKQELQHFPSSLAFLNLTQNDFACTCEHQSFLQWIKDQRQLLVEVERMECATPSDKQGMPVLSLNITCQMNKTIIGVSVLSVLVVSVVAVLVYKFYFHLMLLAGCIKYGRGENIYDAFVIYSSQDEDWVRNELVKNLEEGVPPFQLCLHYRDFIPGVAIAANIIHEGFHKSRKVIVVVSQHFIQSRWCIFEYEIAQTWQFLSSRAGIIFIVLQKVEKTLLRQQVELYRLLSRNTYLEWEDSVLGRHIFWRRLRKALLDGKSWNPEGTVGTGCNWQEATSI

Data set [9] has the same target. The data set can be described thus: Inhibition of LPS-induced human TLR4 activation expressed in HEK-Blue hTLR4 cells assessed as decrease in SEAP activity at 25 uM pretreated for 1 hr followed by LPS treatment for 16 hrs by absorbance based assay relative to control. It counts as cell-based. Conditions: time 17.0 hrs.
Data set [10] concerns the target T1, Toll-like receptor 4 (Mus musculus) (UniProt Q9QUK6).
T1 sequence (whole entry): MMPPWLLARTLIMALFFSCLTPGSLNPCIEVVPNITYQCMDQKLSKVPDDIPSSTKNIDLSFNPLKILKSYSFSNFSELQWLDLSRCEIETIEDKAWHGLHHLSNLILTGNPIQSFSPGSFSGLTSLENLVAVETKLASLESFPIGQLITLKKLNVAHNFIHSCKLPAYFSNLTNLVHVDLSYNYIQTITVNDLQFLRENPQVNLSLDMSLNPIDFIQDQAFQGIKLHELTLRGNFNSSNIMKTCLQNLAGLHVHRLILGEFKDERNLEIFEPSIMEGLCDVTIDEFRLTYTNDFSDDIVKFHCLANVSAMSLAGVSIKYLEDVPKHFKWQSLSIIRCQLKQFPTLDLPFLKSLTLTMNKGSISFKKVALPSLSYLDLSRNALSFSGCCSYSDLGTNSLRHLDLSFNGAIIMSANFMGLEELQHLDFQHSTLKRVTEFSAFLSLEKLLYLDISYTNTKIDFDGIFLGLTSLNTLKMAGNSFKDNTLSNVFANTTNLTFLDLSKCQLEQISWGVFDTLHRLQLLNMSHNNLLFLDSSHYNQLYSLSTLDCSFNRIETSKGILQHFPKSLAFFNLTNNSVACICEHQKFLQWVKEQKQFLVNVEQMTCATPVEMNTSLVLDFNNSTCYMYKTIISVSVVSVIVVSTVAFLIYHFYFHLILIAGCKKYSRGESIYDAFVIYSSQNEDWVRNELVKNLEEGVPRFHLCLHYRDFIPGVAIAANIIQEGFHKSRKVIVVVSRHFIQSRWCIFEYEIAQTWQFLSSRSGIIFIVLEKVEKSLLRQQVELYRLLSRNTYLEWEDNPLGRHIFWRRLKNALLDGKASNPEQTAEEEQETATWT
The data set can be described thus: Inhibition of LPS-induced TLR4 activation in mouse RAW264.7 cells assessed as decrease in p38 MAPK phosphorylation at 2 uM pretreated for 1 hr followed by LPS treatment for 30 mins by Western blot analysis relative to control. The data set is classed as cell-based. The settings on record: time 90.0 min. (In general: In western blotting, separated proteins are transferred to a membrane and probed.)

For data set [11], the species on record is Homo sapiens. The data set can be described thus: Binding affinity to CM5 chip-immobilized TLR4/MD2 (unknown origin) complex by SPR analysis. In general terms: Surface plasmon resonance follows binding to a sensor surface in real time, without labels.
The test system of data set [12] is Acinetobacter baumannii. The data set can be described thus: Antibacterial activity against carbapenem-resistant Acinetobacter baumannii 1915 incubated for 24 hrs by CLSI based broth microdilution method. It counts as functional, organism-based.
The subject of data set [13] is Acinetobacter baumannii. The data set can be described thus: Antibacterial activity against carbapenem-resistant Acinetobacter baumannii-induced sepsis shock in ICR mouse model assessed as bacterial growth inhibition in lung at 1 mg/kg, ip pretreated with compound for 1 hr followed by bacterial infection measured after 16 hrs relative to control. The data set is classed as functional. Conditions: time 17 hrs.

For data set [14], the system named is Acinetobacter baumannii. The data set can be described thus: Antibacterial activity against carbapenem-resistant Acinetobacter baumannii-induced sepsis shock in ICR mouse model assessed as bacterial growth inhibition in liver at 1 mg/kg, ip pretreated with compound for 1 hr followed by bacterial infection measured after 16 hrs relative to control. It counts as functional. The settings on record: time 17 hrs.

Data set [15] concerns Mus musculus. The data set can be described thus: Antiseptic activity in sepsis shock ICR mouse model infected with carbapenem-resistant Acinetobacter baumannii assessed as decrease in IL-1beta level in serum at 1 mg/kg, ip pretreated with compound for 1 hr followed by bacterial infection measured after 16 hrs relative to control. The data set is classed as functional. The arrangement: scale not given: the % may be the effect or the level left. The settings on record: time 17 hrs.

In data set [16] the test system is Mus musculus. The data set can be described thus: Antiseptic activity in sepsis shock ICR mouse model infected with carbapenem-resistant Acinetobacter baumannii assessed as reduction in bacterial count in lungs at 1 mg/kg, ip pretreated with compound for 1 hr followed by bacterial infection measured after 16 hrs relative to control. It counts as functional. Details: scale not given: the % may be the effect or the level left. The settings on record: time 17 hrs.

The subject of data set [17] is Mus musculus. The data set can be described thus: Antiseptic activity in sepsis shock ICR mouse model infected with carbapenem-resistant Acinetobacter baumannii assessed as reduction in bacterial count in lungs at 1 mg/kg, ip pre-infected with bacteria followed by compound administration 1 hr post-infection measured after 16 hrs relative to control. It counts as functional. Details: scale not given: the % may be the effect or the level left.

Data set [18] relates to Mus musculus. The data set can be described thus: Antiseptic activity in sepsis shock ICR mouse model infected with carbapenem-resistant Acinetobacter baumannii assessed as reduction in bacterial count in lungs at 1 mg/kg, ip pre-infected with bacteria followed by compound administration 3 hrs post-infection measured after 16 hrs relative to control. It counts as functional. Details: scale not given: the % may be the effect or the level left.

Data set [19] concerns Mus musculus. The data set can be described thus: Antiseptic activity in sepsis shock ICR mouse model infected with carbapenem-resistant Acinetobacter baumannii assessed as reduction in bacterial count in liver at 1 mg/kg, ip pretreated with compound for 3 hrs followed by bacterial infection measured after 16 hrs relative to control. It counts as functional. Details: scale not given: the % may be the effect or the level left. The settings on record: time 19 hrs.

In data set [20] the test system is Mus musculus. The data set can be described thus: Antiseptic activity in sepsis shock ICR mouse model infected with carbapenem-resistant Acinetobacter baumannii assessed as reduction in bacterial count in liver at 1 mg/kg, ip pre-infected with bacteria followed by compound administration 1 hr post-infection measured after 16 hrs relative to control. The arrangement: scale not given: the % may be the effect or the level left. It counts as functional.

For data set [21], the system named is Mus musculus. The data set can be described thus: Antiseptic activity in sepsis shock ICR mouse model infected with carbapenem-resistant Acinetobacter baumannii assessed as reduction in bacterial count in liver at 1 mg/kg, ip pre-infected with bacteria followed by compound administration 3 hrs post-infection measured after 16 hrs relative to control. The data set is classed as functional. Details: scale not given: the % may be the effect or the level left.

For data set [22], the system named is Mus musculus. The data set can be described thus: Antiseptic activity in sepsis shock ICR mouse model infected with carbapenem-resistant Acinetobacter baumannii assessed as reduction in bacterial count in kidney at 1 mg/kg, ip pretreated with compound for 3 hrs followed by bacterial infection measured after 16 hrs relative to control. The data set is classed as functional. The arrangement: scale not given: the % may be the effect or the level left. Conditions: time 19 hrs.

As for H-GVFRLKKWIKKVIKKWGK-NH2, the outcome in data set [1], in data set [2] and in data set [3] was inactive.
By inhibition is commonly meant the drop in the measured response relative to a control, in per cent. By inhibition in vivo is commonly meant the share of the control response that was lost under treatment. As for H-GVFRLKKWLKKVKKWGK-NH2, the Activity entry was “Active” in [4]; 56% in [7]; 9.4 10^-7M in [11]; 68.7% in data set [15]; 99% in data set [16]; 92.3% in data set [17]. Further, the Activity came to 25% in [18]; 99.4% in data set [19]; 97.7% in [20]; 90.7% in data set [21]; 98.5% in data set [22]. The outcome in data set [5], in [6] and in data set [12] was Active. For the same substance, the inhibition was found to be 92.1% in [8], 100% in data set [9] and 63% in [10]. Also, the inhibition in vivo at 1 mg/kg in data set [13] was determined as 96.5%; in data set [14], 95.7%.
